{"source": "patent US8647673B2", "about": "“Nanoparticles for imaging and treating chlamydial infection” (Wayne State University, priority 2007, dated 2014)", "test_system": "C. trachomatis (serovar K)", "assay": "Microsusceptibility: chlamydial inclusion counts in infected McCoy cells", "assay_type": "cell-based", "conditions": "for change in MIC50 with length of treatment: 24 vs 48 hrs incubation, treated immediately following infection; for MIC50: Chlamydia trachomatis; for sensitivity (decrease in inclusion number with increasing dose): drug added 24 or 48 hours post infection, 24 hours in presence of drug", "experimental": "FIG. 19. […] McCoy cells were infected with C trachomatis serovar K at MOI=1. […] Drugs were administered either encapsulated in nanoparticles (top panel) or dissolved in growth medium (bottom panel). Chlamydial viability was determined by counting the number of inclusions/well.\nCells and growth of Chlamydia. McCoy cells were seeded onto 96-well microtitre plates at a concentration of 2×10^5 cells per well and allowed to adhere overnight at 37° C. and 5% CO2 in Eagles MEM supplemented with 10% FBS and […] Glutamine. The following day, the cells were inoculated with C. trachomatis (UW-31, serovar K) at 10^4 IFU/well and centrifuged at 2500 rpm for 1 hr at room temperature, followed by incubation at 37° C. for 1 hr. The inoculum was then aspirated and replaced with the appropriate two fold dilution of free drug or encapsulated nanoparticles prepared in antibiotic-free growth media containing 0.06% glucose and 1 μg/ml cyclohexamide. The cells were incubated in the presence of drug for 24 or 48 hrs post infection and then fixed with 100% MeOH. Chlamydial inclusions were detected by immunofluorescence using BioRad Pathfinder® according to the manufacturer's instructions and the plates subsequently stored protected from light at 4° C.\nMcCoy cells were seeded onto 96-well microtiter plates and then infected the next day with 10^4 IFU/well C. trachomatis (serovar K).\nMcCoy cells were seeded onto 96-well microtiter plates and then infected the next day with 10^4 IFU/well C. trachomatis (serovar K). […] The mean inclusion number was plotted as a function of concentration.\nMcCoy cells (2×10^5/well) were seeded onto 96-well microtitre plates and then infected the next day with 10^4 IFU/well C. trachomatis (serovar K). […] The cells were incubated for 24 hours in the presence of drug and then fixed. Based on previous experiments we refined the concentrations ranges for each of the two free drugs and encapsulated nanoparticles.\nMcCoy cells (2×10^5/well) were seeded onto 96-well microtitre plates and then infected the next day with 10^4 IFU/well C. trachomatis (serovar K). […] The cells were incubated for 24 hours in the presence of drug and then fixed. […] We, therefore, extended the concentration ranges for the two drugs.\nMcCoy cells (2×10^5/well) were seeded onto 96-well microtitre plates and then infected the next day with 10^4 IFU/well C. trachomatis (serovar K). […] The cells were incubated for 24 hours or 48 hours in the presence of drug and then fixed.\nFree and nanoparticle-encapsulated antibiotics added at either t0 (time of infection) or after 24 hr of infection (t24), were compared along with blank nanoparticles as controls.", "key": {"[1]": {"conditions": "24 h, added immediately following infection, 24 hours in the presence of drug (Example 9), read-out: MIC50"}, "[2]": {"conditions": "treated individually, MOI=1, drug added at overlay, nanoparticles not conjugated to folic acid (Example 16), read-out: MIC50"}}, "note": "Read-outs that look alike come from different tables or passages of the source."}
{"smiles": "CC[C@H]1OC(=O)[C@H](C)[C@@H](O[C@H]2C[C@@](C)(OC)[C@@H](O)[C@H](C)O2)[C@H](C)[C@@H](O[C@@H]2O[C@H](C)C[C@H](N(C)C)[C@H]2O)[C@](C)(O)C[C@@H](C)CN(C)[C@H](C)[C@@H](O)[C@]1(C)O", "note": "[azithromycin]", "values": [{"measurement": "change in MIC50 with length of treatment", "result": "no significant change in MIC50"}, {"measurement": "MIC50", "setting": "[1]", "result": 0.04, "unit": "µg/mL"}, {"measurement": "MIC50", "setting": "in the presence of 0.004 μg/ml rifampin (Example 16), read-out: MIC50 of azithromycin", "result": 0.016, "unit": "µg/mL"}, {"measurement": "MIC50", "setting": "[2]", "result": 0.032, "unit": "µg/mL"}, {"measurement": "sensitivity (decrease in inclusion number with increasing dose)", "result": "marked insensitivity"}]}
{"smiles": "CO[C@H]1/C=C/O[C@@]2(C)Oc3c(C)c(O)c4c(O)c(c(/C=N/N5CCN(C)CC5)c(O)c4c3C2=O)NC(=O)/C(C)=C\\C=C\\[C@H](C)[C@H](O)[C@@H](C)[C@@H](O)[C@@H](C)[C@H](OC(C)=O)[C@@H]1C", "note": "[rifampin]", "values": [{"measurement": "change in MIC50 with length of treatment", "result": "no significant change in MIC50"}, {"measurement": "MIC50", "setting": "[1]", "result": 0.005, "unit": "µg/mL"}, {"measurement": "MIC50", "setting": "24 h, drug added at 24 hpi and left on for 24 hours, read-out: MIC50", "result": "> 0.08", "unit": "µg/mL"}, {"measurement": "MIC50", "setting": "read-out: MIC50 of rifampin, in the presence of 0.016 μg/ml azithromycin (Example 16)", "result": 0.002, "unit": "µg/mL"}, {"measurement": "MIC50", "setting": "[2]", "result": 0.008, "unit": "µg/mL"}, {"measurement": "sensitivity (decrease in inclusion number with increasing dose)", "result": "marked insensitivity"}]}
